Assay results reported in US9364448B2, “Nitisinone for treatment of oculocutaneous/ocular albinism and for increasing pigmentation” (The United States of America, as represented by the …, priority 2010, dated 2016).
“Also recorded” adds a separate entry of the source.

What was measured:
[1] = system: C57BL/6J-Tyr^c-2J/c-2J mice (OCA1a model); test: Plasma tyrosine in NTBC-treated Tyr^c-2J/c-2J mice; format: in vivo, mouse
Method: Drug Dosing and Monitoring. […] Plasma tyrosine was assayed from retro-orbital blood taken from mice at 1 week, and 4 weeks into treatment. Because the volume of blood that could be obtained from non-terminal bleeds was small, the plasma from 2-3 mice was pooled to make a single measurement. Plasma samples were frozen immediately after collection on dry ice. Samples ready for assay were gently thawed, diluted with an equal volume of loading buffer (0.2 M lithium citrate, pH 2.2), and filtered using Vivaspin 500 (3000 Da molecular weight cut-off, Sartorius Stedman Biotech, Goettingen, Germany) spun in a fixed angle centrifuge at about 14000×g for 60 minutes at a temperature of about 16-20° C. The supernatant was collected and tyrosine was quantitated on a Biochrom 30 […] (Biochrom, Ltd., Cambridge, UK) using the manufacturer's specifications. At the beginning of the study, baseline plasma concentrations of tyrosine, coat color (gross and microscopic), anterior segment pigment, and posterior segment pigment were documented for each mouse prior to initiating experiments. […] It is known that a possible side effect of NTBC treatment is corneal irritation, which is monitored daily. […] At the end of four weeks time, plasma tyrosine concentrations were assessed in both treated and control animals.

[2] = system: C57BL/6J-Tyr^c-2J/c-2J mice (OCA1a model); test: Coat and ocular pigmentation, clinical examination, Tyr^c-2J/c-2J mice; format: in vivo, mouse; conditions: one month
Method: Animal Husbandry and Clinical Examination. C57BL/6J mice (Stock #000664), C57BL/6JTyr^c-2J/c-2J mice (Stock #000058, MGI ID#1855985), and C57BL/6Tyr^c-h/c-h (Stock #000104, MGI ID#1855979) were obtained from the Jackson Laboratory (Bar Harbor, Me.). Mice were housed according to the institutional Animal Review Board standards with a 14 hour light/10 hour dark cycle. These studies conformed to the principles for laboratory animal research outlined by the Animal Welfare Act (NIH/HHS) and the ARVO Statement for the Use of Animals in Ophthalmic and Vision Research and were approved by the Institutional Animal Care and Use Committee of the National Eye Institute. Clinical examination and imaging of the anterior segment of mice were performed on gently-restrained, awake mice using a Haag-Streit BQ slit lamp and Imaging Module IM900® software (Haag-Streit, Inc., Mason, Ohio). […]
At the beginning of the study, baseline plasma concentrations of tyrosine, coat color (gross and microscopic), anterior segment pigment, and posterior segment pigment were documented for each mouse prior to initiating experiments. […] It is known that a possible side effect of NTBC treatment is corneal irritation, which is monitored daily. […] At the end of four weeks time, plasma tyrosine concentrations were assessed in both treated and control animals. […]

Compound: O=C1CCCC(=O)C1C(=O)c1ccc(C(F)(F)F)cc1[N+](=O)[O-] [NTBC, 2-(-2-nitro-4 trifluoromethylbenzoyl)-1,3 cyclohexanedione]
- Plasma tyrosine concentration ([1]; Tyr^c-2J/c-2J (OCA1a model), 4 mg/kg q.o.d. oral, after 30 days, n = 4): 673 ± 73 μM (n = 4,
- Plasma tyrosine concentrations, treated vs control ([1]; Tyr^c-2J/c-2J mice, 1 mg/kg every other day by oral gavage, one month): not statistically significantly different
- Phenotypic changes ([2]; 1 mg/kg every other day by oral gavage): no phenotypic changes
- Coat color, fundus pigmentation, iris transillumination (coat and ocular pigmentation) ([2]; 4 mg/kg orally every other day, 4 mg/kg): no difference; also recorded: grossly unchanged
